Source: US10238632B2, “Sigma receptor-binding agent” (FUJIFILM Toyama Chemical Co., Ltd., priority 2015, dated 2019)

Experiments:
[1] = tested on: N (neuronal) (α-BGTX-insensitive) receptor; test: Receptor binding assay, N (neuronal) (α-BGTX-insensitive); settings: rat cerebral cortex, compound A at 10 μM, [3H] cytisine (1.5 nM), 75 min./4° C.
Method: (§1) The compound A was tested for ability to bind to 21 types of receptors. […]
(§2) The inhibition rate of the compound A for each radioligand was calculated by the following equation. 100−([measured specific binding]/[control specific binding]×100) Equation: […]
(§3) In the equation, the measured specific binding indicates the amount of binding radioactivity of each radioligand under the presence of the compound A and the corresponding reference compound, and the control specific binding indicates the amount of binding radioactivity of each radioligand under the presence of the corresponding reference compound.

[2] = tested on: TH receptor; test: Receptor binding assay, TH; settings: rat liver, compound A at 10 μM, [125I] T3 (0.1 nM), 18 h/4° C.
Method: as §1, §2, §3

[3] = tested on: BZD (central) receptor; test: Receptor binding assay, BZD (central); settings: rat cerebral cortex, compound A at 10 μM, [3H] flunitrazepam (0.4 nM), 60 min./4° C.
Method: as §1, §2, §3

[4] = tested on: α1 (non-selective) receptor; test: Receptor binding assay, α1 (non-selective); settings: rat cerebral cortex, compound A at 10 μM, [3H] prazosin (0.25 nM), 60 min./22° C
Method: as §1, §2, §3

[5] = tested on: 5-HT (non-selective) receptor; test: Receptor binding assay, 5-HT (non-selective); settings: rat cerebral cortex, compound A at 10 μM, [3H] serotonin (2 nM), 15 min./37° C.
Method: as §1, §2, §3

[6] = biological target: T1, D1 receptor (Rattus norvegicus, UniProt P18901); test: Receptor binding assay, D1; settings: rat striatum, compound A at 10 μM, [3H] SCH 23390 (0.3 nM), 45 min./22° C.
T1 construct: rat striatum; from tissue; host or cells: rat striatum
T1 sequence (P18901 whole entry): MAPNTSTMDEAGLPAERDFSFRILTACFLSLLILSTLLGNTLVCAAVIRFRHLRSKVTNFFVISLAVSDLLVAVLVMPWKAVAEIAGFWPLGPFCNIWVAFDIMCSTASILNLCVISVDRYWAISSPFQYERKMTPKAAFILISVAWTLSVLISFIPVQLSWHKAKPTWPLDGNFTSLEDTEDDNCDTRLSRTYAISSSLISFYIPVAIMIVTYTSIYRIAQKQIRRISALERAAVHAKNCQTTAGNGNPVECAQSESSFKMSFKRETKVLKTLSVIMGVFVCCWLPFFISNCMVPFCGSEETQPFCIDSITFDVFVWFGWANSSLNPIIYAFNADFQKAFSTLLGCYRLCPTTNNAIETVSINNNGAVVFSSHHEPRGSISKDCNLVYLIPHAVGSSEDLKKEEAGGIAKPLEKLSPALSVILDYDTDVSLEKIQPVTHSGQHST
Method: as §1, §2, §3

[7] = biological target: T2, D2 receptor (Rattus norvegicus, UniProt P61169); test: Receptor binding assay, D2; settings: rat striatum, compound A at 10 μM, [3H] YM-09151-2 (0.1 nM), 60 min./22° C.
T2 construct: rat striatum; from tissue; host or cells: rat striatum
Method: as §1, §2, §3

[8] = tested on: α2 (non-selective) receptor; test: Receptor binding assay, α2 (non-selective); settings: rat cerebral cortex, compound A at 10 μM, [3H] RX 821002 (0.5 nM), 30 min./22° C.
Method: as §1, §2, §3

[9] = tested on: TRH receptor; test: Receptor binding assay, TRH; settings: rat cerebral cortex, compound A at 10 μM, [3H] Me-TRH (2 nM), 6 h/4° C.
Method: as §1, §2, §3

[10] = biological target: T3, H1 (h) receptor (Homo sapiens, UniProt P35367); test: Receptor binding assay, H1 (h); settings: human recombinant (HEK-293 cells), compound A at 10 μM, [3H] pyrilamine (3 nM), 60 min./22° C., read-out: Inhibition rate of compound A for radioligand (%)
T3 construct: expressed in transfected cells; host or cells: HEK-293 cells
T3 sequence (P35367 whole entry): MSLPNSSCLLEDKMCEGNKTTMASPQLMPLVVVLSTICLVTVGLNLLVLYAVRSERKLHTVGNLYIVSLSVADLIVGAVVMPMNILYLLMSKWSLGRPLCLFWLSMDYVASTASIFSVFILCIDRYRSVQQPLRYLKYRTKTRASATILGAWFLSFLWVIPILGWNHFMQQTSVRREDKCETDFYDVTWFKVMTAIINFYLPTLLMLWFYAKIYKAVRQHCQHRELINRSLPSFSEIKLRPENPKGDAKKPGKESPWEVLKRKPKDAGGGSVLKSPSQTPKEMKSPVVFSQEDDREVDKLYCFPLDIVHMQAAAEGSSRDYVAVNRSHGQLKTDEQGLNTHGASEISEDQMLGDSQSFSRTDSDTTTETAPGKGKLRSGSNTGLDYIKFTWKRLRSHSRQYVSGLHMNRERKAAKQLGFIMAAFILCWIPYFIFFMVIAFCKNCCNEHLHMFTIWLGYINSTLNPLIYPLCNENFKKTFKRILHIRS
Method: as §1, §2, §3

[11] = biological target: T4, M2 (h) receptor (Homo sapiens, UniProt P08172); test: Receptor binding assay, M2 (h); settings: human recombinant (CHO cells), compound A at 10 μM, [3H] AF-DX 384 (2 nM), 60 min./22° C.
T4 construct: expressed in transfected cells; host or cells: CHO cells
T4 sequence (P08172 whole entry): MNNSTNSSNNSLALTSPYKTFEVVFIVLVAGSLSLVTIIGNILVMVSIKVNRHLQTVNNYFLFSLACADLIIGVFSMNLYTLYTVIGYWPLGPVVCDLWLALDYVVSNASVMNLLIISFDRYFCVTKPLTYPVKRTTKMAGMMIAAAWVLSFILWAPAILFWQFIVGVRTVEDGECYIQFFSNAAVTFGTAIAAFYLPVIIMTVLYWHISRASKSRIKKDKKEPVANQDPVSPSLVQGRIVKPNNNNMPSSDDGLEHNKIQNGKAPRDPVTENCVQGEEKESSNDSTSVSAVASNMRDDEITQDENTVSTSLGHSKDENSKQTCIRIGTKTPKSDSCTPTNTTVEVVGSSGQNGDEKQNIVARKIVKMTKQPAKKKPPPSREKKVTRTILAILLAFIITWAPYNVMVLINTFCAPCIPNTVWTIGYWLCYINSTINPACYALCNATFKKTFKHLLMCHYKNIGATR
Method: as §1, §2, §3

[12] = biological target: T5, H2 receptor (Cavia porcellus, UniProt P47747); test: Receptor binding assay, H2; settings: guinea-pig striatum, compound A at 10 μM, [3H] APT (0.1 nM), 150 min/22° C., read-out: Inhibition rate of compound A for radioligand (%)
T5 construct: guinea-pig striatum; from tissue; host or cells: guinea-pig striatum
Method: as §1, §2, §3

[13] = tested on: NMDA receptor; test: Receptor binding assay, NMDA; settings: rat cerebral cortex, compound A at 10 μM, [3H] CGP 39653 (5 nM), 60 min./4° C.
Method: as §1, §2, §3

[14] = biological target: T6, GABAB receptor (Rattus norvegicus, UniProt Q9Z0U4); test: Receptor binding assay, GABAB; settings: rat cerebral cortex, compound A at 10 μM, [3H] GABA (+40 μM isoguvacine) (10 nM), 10 min./22° C., read-out: Inhibition rate of compound A for radioligand (%)
T6 construct: rat cerebral cortex; from tissue; host or cells: rat cerebral cortex
T6 sequence (Q9Z0U4 20-960): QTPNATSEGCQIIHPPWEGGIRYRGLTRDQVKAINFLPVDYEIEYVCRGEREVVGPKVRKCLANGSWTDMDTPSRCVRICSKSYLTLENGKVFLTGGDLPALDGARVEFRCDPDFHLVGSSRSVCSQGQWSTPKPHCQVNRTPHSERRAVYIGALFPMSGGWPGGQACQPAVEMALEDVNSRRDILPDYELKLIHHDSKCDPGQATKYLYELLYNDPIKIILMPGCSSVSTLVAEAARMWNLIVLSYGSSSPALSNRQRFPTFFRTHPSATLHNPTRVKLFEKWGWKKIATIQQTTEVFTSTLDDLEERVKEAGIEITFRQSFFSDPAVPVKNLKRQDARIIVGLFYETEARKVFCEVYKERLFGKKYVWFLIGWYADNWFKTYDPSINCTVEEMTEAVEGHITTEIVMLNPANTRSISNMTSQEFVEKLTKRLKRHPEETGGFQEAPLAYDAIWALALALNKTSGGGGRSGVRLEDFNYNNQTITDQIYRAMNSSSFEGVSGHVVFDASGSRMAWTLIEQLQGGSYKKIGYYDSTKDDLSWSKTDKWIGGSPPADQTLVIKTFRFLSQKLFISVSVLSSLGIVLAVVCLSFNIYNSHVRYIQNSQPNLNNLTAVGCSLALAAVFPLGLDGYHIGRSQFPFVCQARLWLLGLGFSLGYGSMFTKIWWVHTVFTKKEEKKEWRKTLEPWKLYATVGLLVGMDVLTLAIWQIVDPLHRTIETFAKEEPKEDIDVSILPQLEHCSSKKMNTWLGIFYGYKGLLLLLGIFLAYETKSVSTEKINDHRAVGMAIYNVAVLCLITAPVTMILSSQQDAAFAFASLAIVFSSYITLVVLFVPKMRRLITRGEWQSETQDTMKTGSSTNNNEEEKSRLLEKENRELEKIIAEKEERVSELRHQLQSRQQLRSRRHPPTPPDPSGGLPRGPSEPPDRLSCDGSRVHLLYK
T6 sequence (O88871 41-940 partner): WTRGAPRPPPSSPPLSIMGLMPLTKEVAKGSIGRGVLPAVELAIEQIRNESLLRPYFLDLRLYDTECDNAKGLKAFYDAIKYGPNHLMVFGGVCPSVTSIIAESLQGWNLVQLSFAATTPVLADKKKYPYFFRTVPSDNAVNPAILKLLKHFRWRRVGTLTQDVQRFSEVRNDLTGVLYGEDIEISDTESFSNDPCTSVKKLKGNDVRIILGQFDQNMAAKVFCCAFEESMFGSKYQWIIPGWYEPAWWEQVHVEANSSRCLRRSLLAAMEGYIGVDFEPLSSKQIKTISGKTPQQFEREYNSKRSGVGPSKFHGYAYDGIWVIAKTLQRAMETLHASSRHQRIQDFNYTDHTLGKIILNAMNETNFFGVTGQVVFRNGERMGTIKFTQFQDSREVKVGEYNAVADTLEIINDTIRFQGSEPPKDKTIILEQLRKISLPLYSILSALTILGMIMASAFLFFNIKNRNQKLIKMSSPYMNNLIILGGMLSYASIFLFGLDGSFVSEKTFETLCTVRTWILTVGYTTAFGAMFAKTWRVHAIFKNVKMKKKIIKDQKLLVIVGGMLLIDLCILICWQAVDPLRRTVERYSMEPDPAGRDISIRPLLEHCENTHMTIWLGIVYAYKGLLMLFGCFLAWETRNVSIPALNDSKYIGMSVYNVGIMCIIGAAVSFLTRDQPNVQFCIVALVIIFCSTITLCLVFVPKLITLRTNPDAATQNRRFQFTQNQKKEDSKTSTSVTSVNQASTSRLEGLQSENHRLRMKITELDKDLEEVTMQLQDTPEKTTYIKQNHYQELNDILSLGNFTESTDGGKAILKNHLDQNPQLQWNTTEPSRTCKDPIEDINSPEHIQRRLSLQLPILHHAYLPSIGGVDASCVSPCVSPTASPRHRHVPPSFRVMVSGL
Method: as §1, §2, §3

[15] = biological target: T7, AT1 (h) receptor (Homo sapiens, UniProt P30556); test: Receptor binding assay, AT1 (h); settings: human recombinant (CHO cells), compound A at 10 μM, [125I] [Sar1, Ile5]-AT II (0.05 nM), 60 min./37° C., read-out: Inhibition rate of compound A for radioligand (%)
T7 construct: expressed in transfected cells; host or cells: CHO cells
T7 sequence (P30556 whole entry): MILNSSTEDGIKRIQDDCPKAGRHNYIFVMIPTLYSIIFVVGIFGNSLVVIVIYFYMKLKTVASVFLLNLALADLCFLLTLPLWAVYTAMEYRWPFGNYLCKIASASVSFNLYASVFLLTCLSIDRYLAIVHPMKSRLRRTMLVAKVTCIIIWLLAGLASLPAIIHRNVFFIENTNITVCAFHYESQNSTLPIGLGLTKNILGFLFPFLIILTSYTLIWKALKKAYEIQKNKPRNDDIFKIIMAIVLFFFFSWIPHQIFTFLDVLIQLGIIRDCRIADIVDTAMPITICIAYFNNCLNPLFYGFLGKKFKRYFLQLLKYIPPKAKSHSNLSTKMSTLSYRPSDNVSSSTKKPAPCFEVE
Method: as §1, §2, §3

[16] = tested on: σ (non-selective) receptor; test: Receptor binding assay, σ (non-selective); settings: rat cerebral cortex, compound A at 10 μM, [3H] DTG (8 nM), 120 min./22° C.
Method: as §1, §2, §3

[17] = biological target: T8, β2 receptor (Cavia porcellus, UniProt Q8K4Z4); test: Receptor binding assay, β2; settings: guinea-pig lung, compound A at 10 μM, [3H] (−)CGP 12177 (+10 nM CGP 20712A) (0.4 nM), 40 min./22° C., read-out: Inhibition rate of compound A for radioligand (%)
T8 construct: guinea-pig lung; from tissue; host or cells: guinea-pig lung
T8 sequence (Q8K4Z4 whole entry): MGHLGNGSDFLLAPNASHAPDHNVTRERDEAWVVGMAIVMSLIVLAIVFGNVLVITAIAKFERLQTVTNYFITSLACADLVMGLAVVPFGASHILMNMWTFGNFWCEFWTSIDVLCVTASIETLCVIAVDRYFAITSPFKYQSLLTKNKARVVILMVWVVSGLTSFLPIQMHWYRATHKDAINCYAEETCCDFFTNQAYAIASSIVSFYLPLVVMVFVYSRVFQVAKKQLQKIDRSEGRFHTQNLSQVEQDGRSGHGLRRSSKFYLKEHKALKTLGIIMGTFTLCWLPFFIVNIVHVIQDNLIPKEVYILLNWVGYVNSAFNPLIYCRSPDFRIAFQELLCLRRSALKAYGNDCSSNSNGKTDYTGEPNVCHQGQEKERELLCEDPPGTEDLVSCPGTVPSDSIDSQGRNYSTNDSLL
Method: as §1, §2, §3

[18] = biological target: T9, AT2 (h) receptor (Homo sapiens, UniProt P50052); test: Receptor binding assay, AT2 (h); settings: human recombinant (Hela cells), compound A at 10 μM, [3H] GCP 42112A (0.05 nM), 180 min./37° C., read-out: Inhibition rate of compound A for radioligand (%)
T9 construct: expressed in transfected cells; host or cells: Hela cells
T9 sequence (P50052 whole entry): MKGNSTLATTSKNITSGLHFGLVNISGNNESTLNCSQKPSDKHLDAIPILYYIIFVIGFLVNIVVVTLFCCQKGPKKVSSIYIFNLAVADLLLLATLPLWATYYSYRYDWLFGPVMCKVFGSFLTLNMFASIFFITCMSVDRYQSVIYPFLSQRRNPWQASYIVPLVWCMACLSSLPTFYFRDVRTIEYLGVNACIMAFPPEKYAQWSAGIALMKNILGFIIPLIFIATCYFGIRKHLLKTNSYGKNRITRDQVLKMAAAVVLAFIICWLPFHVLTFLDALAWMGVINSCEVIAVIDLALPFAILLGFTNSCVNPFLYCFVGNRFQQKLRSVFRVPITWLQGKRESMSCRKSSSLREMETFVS
Method: as §1, §2, §3

[19] = tested on: GABAA receptor; test: Receptor binding assay, GABAA; settings: rat cerebral cortex, compound A at 10 μM, [3H] muscimol (5 nM), 10 min./4° C.
Method: as §1, §2, §3

[20] = biological target: T10, sigma-2 receptors expressed in Jurkat cells (Homo sapiens, UniProt Q5BJF2); test: Identification of sigma-2 receptor inhibition constant; assay type: binding; settings: 25 nM [3H] DTG under the presence of 1 μM (+)-pentazocine, room temperature for 60 minutes, Cheng-Prusoff equation
T10 construct: In the sigma-2 receptors expressed in Jurkat cells; endogenous in cells; host or cells: Jurkat cells
T10 sequence (Q5BJF2 whole entry): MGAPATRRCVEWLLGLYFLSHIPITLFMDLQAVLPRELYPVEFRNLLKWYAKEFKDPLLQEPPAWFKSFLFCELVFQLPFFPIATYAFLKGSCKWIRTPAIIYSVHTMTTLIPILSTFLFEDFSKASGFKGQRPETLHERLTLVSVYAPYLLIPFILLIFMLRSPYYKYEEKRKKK
Method: The sigma-2 receptor inhibition constant of the compound A (Ki value) was identified. The test was conducted by a method described below in accordance with Ganapathy, M. E. (1999).
DTG under the presence of 1 μM (+)-pentazocine. The reaction was conducted at room temperature for 60 minutes. The inhibition rate was calculated in the same manner as described in Test Example 1. The Ki value was identified in accordance with the Cheng-Prusoff equation by calculating IC50 based on nonlinear regression analysis.

[21] = biological target: T11, M1 receptor (Rattus norvegicus, UniProt P08482); test: Receptor binding assay, M1; settings: rat cerebral cortex, compound A at 10 μM, [3H] pirenzepine (1 nM), 60 min./22° C., read-out: Inhibition rate of compound A for radioligand (%)
T11 construct: rat cerebral cortex; from tissue; host or cells: rat cerebral cortex
Method: as §1, §2, §3

[22] = biological target: T12, sigma-1 receptors expressed in Jurkat cells (Homo sapiens, UniProt Q99720); test: Identification of sigma-1 receptor inhibition constant; assay type: binding; settings: 15 nM [3H] (+)-pentazocine, 37° C. for 120 minutes, Cheng-Prusoff equation
T12 construct: In the sigma-1 receptors expressed in Jurkat cells; endogenous in cells; host or cells: Jurkat cells
T12 sequence (Q99720 whole entry): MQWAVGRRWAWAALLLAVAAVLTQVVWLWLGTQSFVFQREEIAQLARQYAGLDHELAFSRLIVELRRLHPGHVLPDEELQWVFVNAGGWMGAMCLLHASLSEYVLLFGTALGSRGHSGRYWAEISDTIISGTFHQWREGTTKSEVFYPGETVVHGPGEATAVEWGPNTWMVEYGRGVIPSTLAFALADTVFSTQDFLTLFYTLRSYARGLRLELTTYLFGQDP
Method: The sigma-1 receptor inhibition constant of the compound A (Ki value) was identified. The test was conducted by a method described below in accordance with Ganapathy, M. E. (1999).
(+)-pentazocine. The reaction was conducted at 37° C. for 120 minutes. The inhibition rate was calculated in the same manner as described in Test Example 1. The Ki value was identified in accordance with the Cheng-Prusoff equation by calculating IC50 based on nonlinear regression analysis.

## O=C(O)/C=C\C(=O)O.OC1CN(CCCOCCc2ccc3sccc3c2)C1 [compound A, 1-(3-(2-(1-benzothiophene-5-yl)ethoxy)propyl)azetidine-3-ol maleate]
[1]
  Inhibition rate of compound A for radioligand (%): 12%
[2]
  Inhibition rate of compound A for radioligand (%): −5%
[3]
  Inhibition rate of compound A for radioligand (%): 25%
[4]
  Inhibition rate of compound A for radioligand (%): 36%
[5]
  Inhibition rate of compound A for radioligand (%): 2%
[6]
  Inhibition rate of compound A for radioligand (%): 1%
[7]
  Inhibition rate of compound A for radioligand (%): 21%
[8]
  Inhibition rate of compound A for radioligand (%): 40%
[9]
  Inhibition rate of compound A for radioligand (%): 1%
[10]
  inhibition at 10 µM: -15%
[11]
  Inhibition rate of compound A for radioligand (%): 19%
[12]
  inhibition at 10 µM: 72%
[13]
  Inhibition rate of compound A for radioligand (%): 16%
[14]
  inhibition at 10 µM: 4%
[15]
  inhibition at 10 µM: -2%
[16]
  Inhibition rate of compound A for radioligand (%): 99%
[17]
  inhibition at 10 µM: 5%
[18]
  inhibition at 10 µM: -13%
[19]
  Inhibition rate of compound A for radioligand (%): −8%
[20]
  Ki: 160 nM
[21]
  inhibition at 10 µM: 43%
[22]
  Ki: 16 nM
